Converted amounts (≈) assume the structure as drawn. Where two headings read alike, the source gives them in different places. Ends that are not written are not given here.
Tests used:
[1] = test system: Staphylococcus epidermidis; format: cell-based; conditions: 24 h
Description: (§1) Bacteria (S. aureus, P. aeruginosa, S. epidermidis, E. coli, K. pneumoniae, Enterococcus) and Candida albicans from ATCC were cultured in appropriate media, adjusted to 10^6 CFU/mL before testing. The bacteria and fungal, taken from a deep freezer, were revived by culturing them in a nutrient-rich medium, to grow and form distinct colonies. These colonies were then diluted with physiological saline to reach a turbidity equivalent to 0.5 McFarland, corresponding to a bacterial and fungal concentration of 10⁸ CFU/mL. This suspension was further diluted with 0.9% saline to achieve a concentration of 10⁶ CFU/mL. Subsequently, the bacterial and fungal suspension were diluted 100-fold in Brain-Heart Infusion (BHI) broth to achieve a final concentration of 10⁴ CFU/mL. This bacterial and fungal suspension were used to determine the MIC values in the experiments. Peptides (IND and IND-4,11K) were diluted by 2-fold serial dilution in the range of […] and tested in 96-well plates containing Muller-Hinton (MH) medium. After adding bacteria (10^4 CFU/mL), the samples were incubated at 37°C for 24 h. MIC was determined as the lowest peptide concentration at which no bacterial growth was observed by measuring the optical density OD620 nm. […] The positive controls were Streptomycin for Gram-negative bacteria and Penicillin for Gram-positive bacteria. The negative control was 1X PBS solution. The positive control for antifungal activity was Nystatin.All experiments were performed in triplicate.

Pseudomonas aeruginosa = format: cell-based; conditions: 24 h
Description: as §1

Staphylococcus aureus = format: cell-based; conditions: 24 h
Description: as §1

Klebsiella pneumoniae = format: cell-based; conditions: 24 h
Description: as §1

Candida albicans = format: cell-based; conditions: 24 h
Description: as §1

Enterococcus faecium = format: cell-based; conditions: 24 h
Description: as §1

[2] = 64 µM in PBS pH 7.4, 25, 45, 65, 85°C and 37°C, shaking 600 rpm, HPLC-DAD 280 nm, tryptophan internal standard, duplicate
Description: Peptides were dissolved in phosphate-buffered saline (PBS, pH 7.0) and 10% SDS solution. The peptide concentration was determined by direct weighing and mixing. The secondary structure was analyzed using a circular dichroism (CD) spectrometer. Peptides (64 µM) were dissolved in PBS (pH 7.4) with tryptophan as an internal standard. The solution was incubated at 25°C, 45°C, 65°C, and 85°C with shaking at 600 rpm. Peptide quantification was performed using HPLC-DAD at 280 nm with an injection volume of 20 µL. Each experiment was conducted in duplicate, and data were processed using Excel based on peak areas of tryptophan and peptide. Peptides (40 µM) were dissolved in PBS (pH 8.0) and incubated with 0.0005% trypsin at 37°C under shaking (600 rpm). Samples were collected at 0, 15, and 30 minutes and analyzed by HPLC-DAD at 280 nm with an injection volume of 40 µL [20, 21].

trypsin = experiment: Enzymatic stability with trypsin; format: in vitro ADME; conditions: 40 µM in PBS pH 8.0, 0.0005% trypsin, 37°C, 600 rpm, 15 and 30 minutes, HPLC-DAD 280 nm, duplicate
[3] = test system: S. aureus, S. epidermidis, E. coli, K. pneumoniae, E. faecium, and P. aeruginosa; format: cell-based; conditions: Staphylococcus aureus, Staphylococcus epidermidis and Enterococcus faecium
Description: as §1

red blood cell = experiment: Hemolysis assay; format: cell-based
Text: The hemolysis assay results indicated a concentration-dependent effect of the peptides on red blood cell membrane integrity.

[4] = broth dilution, 96-well, MH medium, 10^4 CFU/mL, 37°C, OD620, triplicate
[5] = plated from MIC well and higher onto MH agar, triplicate

## ILKWKWPWWKWRR-NH2 [IND-4,11K]
[1]
  MBC: 8 µM
  MIC: 8 µM
Pseudomonas aeruginosa
  MBC: 128 µM
  MIC: 128 µM
Staphylococcus aureus
  MBC: 48 µM
  MIC: 48 µM
Klebsiella pneumoniae
  MBC: 128 µM
  MIC: 128 µM
Candida albicans
  MBC: 32 µM
  MIC: 32 µM
Enterococcus faecium
  MBC: 32 µM
  MIC: 32 µM
[2]
  Thermal stability (retention time and peak area): remained largely unchanged
trypsin
  Enzymatic stability with trypsin: significant degradation

## CC[C@H](C)[C@H](N)C(=O)N[C@@H](CC(C)C)C(=O)N1CCC[C@H]1C(=O)N[C@@H](Cc1c[nH]c2ccccc12)C(=O)N[C@@H](CCCCN)C(=O)N[C@@H](Cc1c[nH]c2ccccc12)C(=O)N1CCC[C@H]1C(=O)N[C@@H](Cc1c[nH]c2ccccc12)C(=O)N[C@@H](Cc1c[nH]c2ccccc12)C(=O)N1CCC[C@H]1C(=O)N[C@@H](Cc1c[nH]c2ccccc12)C(=O)N[C@@H](CCCNC(=N)N)C(=O)N[C@@H](CCCNC(=N)N)C(N)=O [IND, Indolicidin]
[1]; [4]
  MIC: 8 µM (≈ 15.3 µg/mL)
[1]; [5]
  MBC: 8 µM (≈ 15.3 µg/mL)
Pseudomonas aeruginosa; [4]
  MIC: >128 µM
Pseudomonas aeruginosa; [5]
  MBC: >128 µM
[3]
  MIC (range over organisms): 8 to 64 µM
Staphylococcus aureus; [4]
  MIC: 64 µM (≈ 122 µg/mL)
Staphylococcus aureus; [5]
  MBC: 64 µM (≈ 122 µg/mL)
Klebsiella pneumoniae; [4]
  MIC: >128 µM
Klebsiella pneumoniae; [5]
  MBC: >128 µM
Candida albicans; [4]
  MIC: 64 µM (≈ 122 µg/mL)
Candida albicans; [5]
  MBC: >128 µM
Enterococcus faecium; [4]
  MIC: 32 µM (≈ 61 µg/mL)
Enterococcus faecium; [5]
  MBC: 32 µM (≈ 61 µg/mL)
[2]
  Thermal stability (retention time and peak area): remained largely unchanged
trypsin
  Enzymatic stability with trypsin: significant degradation
Red blood cell; peptide 2 uM
  Hemolysis activity: 3.04 ± 0.29%
Red blood cell; peptide 4 uM
  Hemolysis activity: 2.51 ± 0.24%
Red blood cell; peptide 8 uM
  Hemolysis activity: 3.05 ± 0.34%
Red blood cell; peptide 16 uM
  Hemolysis activity: 4.89 ± 0.03%
Red blood cell; peptide 32 uM
  Hemolysis activity: 10.33 ± 1.06%
Red blood cell; peptide 64 uM
  Hemolysis activity: 18.09 ± 1.57%
Red blood cell; peptide 128 uM
  Hemolysis activity: 30.91 ± 2.27%

— article PMC12412968, “Indolicidin derivatives as potent dual-action antifungal and antibacterial agents for the treatment of skin infections: A comprehensive study from in vitro to in vivo evaluation” (PLOS One, 2025)
